Reference: article PMC8329300, “X-ray crystallography reveals molecular recognition mechanism for sugar binding in a melibiose transporter MelB” (Communications Biology, 2021)

How the values were obtained:
[1] = biological target: T1, MelBSt D59A (Salmonella typhimurium, UniProt P30878, D59A); assay: [3H]Melibiose transport time course with DW2 intact cells expressing MelBSt D59A; type: cell-based; conditions: 0.4 mM [3H]melibiose
T1 construct: Cys scanning mutagenesis for the full-length MelBSt; expressed in transfected cells; host or cells: E. coli DW2 (melA+, melB-, lacZ-Y-)
T1 sequence (P30878 whole entry D59A): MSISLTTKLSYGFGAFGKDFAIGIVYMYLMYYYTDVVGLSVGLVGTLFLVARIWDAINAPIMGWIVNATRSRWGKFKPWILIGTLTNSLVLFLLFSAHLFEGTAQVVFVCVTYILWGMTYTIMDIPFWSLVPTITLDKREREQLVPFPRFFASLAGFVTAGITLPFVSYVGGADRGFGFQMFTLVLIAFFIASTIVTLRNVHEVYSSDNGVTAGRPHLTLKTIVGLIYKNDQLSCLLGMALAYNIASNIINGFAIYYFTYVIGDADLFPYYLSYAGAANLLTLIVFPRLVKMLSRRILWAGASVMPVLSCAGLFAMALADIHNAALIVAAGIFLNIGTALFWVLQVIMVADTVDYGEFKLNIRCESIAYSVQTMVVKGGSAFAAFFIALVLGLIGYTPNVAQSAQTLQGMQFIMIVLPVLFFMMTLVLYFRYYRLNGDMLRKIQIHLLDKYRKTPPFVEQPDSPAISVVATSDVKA
Procedure: (§1) Fig. 1 Functional characterizations. a [^3H] Melibiose transport time course with intact cells. E. coli DW2 strain (melB^−, lacZ^−Y^−) expressed with the WT, D59C, or D59A MelBSt mutants were subjected to [^3H]melibiose active transport assay at 0.4 mM and 10 mCi/mmol in the presence of 20 mM or 100 mM NaCl or LiCl by a fast filtration method. Inset, melibiose fermentation assay. Transformants with DW2 strain were plated on MacConkey agar plates containing 30 mM melibiose as the sole carbohydrate source and pH sensor neutral red, and incubated at 37 °C for 16–18 h before imaging. Number of tests = 3, from different batch of cells or duplicate measurements from same batch of sample. b Ligand binding by Trp→dansyl galactoside (D^2G) FRET assay. Purified proteins at 1 μM concentration in 20 mM Tris-HCl, pH 7.5, 100 mM CholCl, 10% glycerol, and 0.03% UDM were subjected to steady-state fluorescence measurements as described in Methods. On the time-trace, 1.8 μL of 1 mM D^2G at 10 μM was added into 180 μL of protein solutions at 1-min point, followed by supplying 10 μL of 5 mM DDMB or 5 mM α-NPG to displace the bound D^2G. For testing Na^+ or Li^+ binding, they are added into the solution before displacement with the second sugar. The structure of DDMB or α-NPG is shown in a chair form, and the carbon positions are labeled. Glycosidic bonds are indicated by arrows. Both are α-galactosides containing a substituent at the anomeric carbon-1. The data were from duplicate measurements.
(§2) The overexpression of MelBSt was carried out in the E. coli DW2 strain (melA^+, melB^−, and lacZ^−Y^−) from a constitutive expression plasmid pK95ΔAH/MelBSt/CHis10[9],[28],[33]. The D59C or D59A mutant with Cys or Ala at the position 59, respectively, was constructed previously[9] or in this study by QuikChange Site-Directed Mutagenesis kit and confirmed by DNA sequencing analysis. E. coli DW2 cells containing a given plasmid were grown in Luria-Bertani (LB) broth (5 g yeast extract and 10 g tryptone per liter with 171 mM NaCl) with 100 mg/L of ampicillin in a 37 °C shaker. The overnight cultures were diluted by 5% with LB broth supplemented with 0.5% glycerol and 100 mg/L of ampicillin, and constitutive overexpression was obtained by shaking at 30 °C for another 5 h.
(§3) E. coli DW2 cells expressing MelBSt were washed with 100 mM KPi, pH 7.5, to remove Na^+ contamination as described previously. The cell pellets were resuspended with the assay buffer (100 mM KPi, pH 7.5, 10 mM MgSO4) and adjusted to A420 of 10 (∼0.7 mg protein/ml). Using a fast filtration, transport time course at 0.4 mM melibiose (at specific activity of 10 mCi/mmol) was carried out in the absence or presence of NaCl or LiCl at 20 mM or 100 mM, respectively, and intracellular melibiose was determined as described previously.

[2] = biological target: T2, MelBSt WT (Salmonella typhimurium, UniProt P30878); assay: [3H]Melibiose transport time course with DW2 intact cells expressing MelBSt WT; type: cell-based; conditions: 0.4 mM [3H]melibiose
T2 construct: Cys scanning mutagenesis for the full-length MelBSt; expressed in transfected cells; host or cells: E. coli DW2 (melA+, melB-, lacZ-Y-)
T2 sequence (P30878 whole entry): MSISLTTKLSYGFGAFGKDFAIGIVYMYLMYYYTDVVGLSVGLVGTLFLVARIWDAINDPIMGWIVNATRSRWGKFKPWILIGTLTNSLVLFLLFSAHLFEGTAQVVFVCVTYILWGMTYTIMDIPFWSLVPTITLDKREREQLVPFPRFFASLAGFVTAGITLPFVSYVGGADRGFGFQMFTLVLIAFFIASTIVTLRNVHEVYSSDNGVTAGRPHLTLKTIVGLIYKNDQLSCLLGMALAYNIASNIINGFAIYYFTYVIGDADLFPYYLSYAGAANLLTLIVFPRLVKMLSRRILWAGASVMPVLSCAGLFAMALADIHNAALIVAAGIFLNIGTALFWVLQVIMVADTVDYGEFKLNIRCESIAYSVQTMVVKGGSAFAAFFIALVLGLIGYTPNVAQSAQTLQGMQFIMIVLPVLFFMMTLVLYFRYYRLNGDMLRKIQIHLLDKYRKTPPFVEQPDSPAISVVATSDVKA
Procedure: as §1, §2, §3

OC[C@H]1O[C@H](OCC2O[C@@H](O)[C@H](O)[C@@H](O)[C@@H]2O)[C@H](O)[C@@H](O)[C@H]1O (stereo partly drawn) [Melibiose]
Melibiose transport ([1]; H+, Time 0.17): 9.09
Melibiose transport ([1]; H+, Time 0.50): 8.49
Melibiose transport ([1]; H+, Time 1.00): 2.84
Melibiose transport ([1]; H+, Time 2.00): 1.86
Melibiose transport ([1]; H+, Time 5.00): 1.70
Melibiose transport ([1]; H+, Time 10.00): 1.53
Melibiose transport ([1]; H+, Time 30.00): 1.58
Melibiose transport ([1]; Li+, 20 mM, Time 0.17): 0.82
Melibiose transport ([1]; Li+, 20 mM, Time 0.50): 1.81
Melibiose transport ([1]; Li+, 20 mM, Time 1.00): 0.66
Melibiose transport ([1]; Li+, 20 mM, Time 2.00): 4.29
Melibiose transport ([1]; Li+, 20 mM, Time 5.00): 3.59
Melibiose transport ([1]; Li+, 20 mM, Time 10.00): 1.72
Melibiose transport ([1]; Li+, 20 mM, Time 30.00): 4.17
Melibiose transport ([1]; Na+, 20 mM, Time 0.17): 4.09
Melibiose transport ([1]; Na+, 20 mM, Time 0.50): 2.70
Melibiose transport ([1]; Na+, 20 mM, Time 1.00): 2.54
Melibiose transport ([1]; Na+, 20 mM, Time 2.00): 5.43
Melibiose transport ([1]; Na+, 20 mM, Time 5.00): 1.63
Melibiose transport ([1]; Na+, 20 mM, Time 10.00): 1.16
Melibiose transport ([2]; H+, Time 0.08333): 4.65
Melibiose transport ([2]; H+, Time 0.16667): 11.5871
Melibiose transport ([2]; H+, Time 0.5): 17.8175
Melibiose transport ([2]; H+, Time 1): 26.1053
Melibiose transport ([2]; H+, Time 2): 32.522
Melibiose transport ([2]; H+, Time 5): 41.2117
Melibiose transport ([2]; H+, Time 10): 51.4376
Melibiose transport ([2]; H+, Time 30): 52.9751
Melibiose transport ([2]; Li+, 20 mM, Time 0.08333): 5.082
Melibiose transport ([2]; Li+, 20 mM, Time 0.16667): 9.37
Melibiose transport ([2]; Li+, 20 mM, Time 0.5): 20.2553
Melibiose transport ([2]; Li+, 20 mM, Time 1): 29.5856
Melibiose transport ([2]; Li+, 20 mM, Time 2): 49.8958
Melibiose transport ([2]; Li+, 20 mM, Time 5): 106.047
Melibiose transport ([2]; Li+, 20 mM, Time 10): 190.811
Melibiose transport ([2]; Li+, 20 mM, Time 30): 313.001
Melibiose transport ([2]; Li+, 100 mM, Time 0.08333): 13.3342
Melibiose transport ([2]; Li+, 100 mM, Time 0.16667): 15.8108
Melibiose transport ([2]; Li+, 100 mM, Time 0.5): 32.509
Melibiose transport ([2]; Li+, 100 mM, Time 1): 62.5704
Melibiose transport ([2]; Li+, 100 mM, Time 2): 85.8864
Melibiose transport ([2]; Li+, 100 mM, Time 5): 142.587
Melibiose transport ([2]; Li+, 100 mM, Time 10): 325.223
Melibiose transport ([2]; Li+, 100 mM, Time 30): 437.5
Melibiose transport ([2]; Na+, 20 mM, Time 0.08333): 6.156
Melibiose transport ([2]; Na+, 20 mM, Time 0.16667): 13.1731
Melibiose transport ([2]; Na+, 20 mM, Time 0.5): 23.5532
Melibiose transport ([2]; Na+, 20 mM, Time 1): 28.6147
Melibiose transport ([2]; Na+, 20 mM, Time 2): 46.7036
Melibiose transport ([2]; Na+, 20 mM, Time 5): 103.453
Melibiose transport ([2]; Na+, 20 mM, Time 10): 203.925
Melibiose transport ([2]; Na+, 20 mM, Time 30): 320.843
Melibiose transport ([2]; Na+, 100 mM, Time 0.08333): 7.0516
Melibiose transport ([2]; Na+, 100 mM, Time 0.16667): 7.9788
Melibiose transport ([2]; Na+, 100 mM, Time 0.5): 20.0324
Melibiose transport ([2]; Na+, 100 mM, Time 1): 44.6398
Melibiose transport ([2]; Na+, 100 mM, Time 2): 78.2935
Melibiose transport ([2]; Na+, 100 mM, Time 5): 118.81
Melibiose transport ([2]; Na+, 100 mM, Time 10): 202.959
Melibiose transport ([2]; Na+, 100 mM, Time 30): 340.508
